Test results as given in patent US20120046321A1, “METHODS OF TREATING ATRIAL FIBRILLATION WITH P38 INHIBITOR COMPOUNDS” (INTERMUNE, INC., priority 2005, published 2012).
“Also recorded” adds a separate entry of the source.

Columns and labels:
Format in all cases: in vivo, canine
[1] = system: canines with ventricular tachypacing (VTP)-induced congestive heart failure (CHF); experiment: Echocardiographic monitoring of the VTP-induced CHF model (LV function, LA area, CHF signs); settings: oral PFD 800 mg three times a day
Source text: Briefly, 15 adult mongrel canines (weight 20 to 32 kgs) were divided into 3 groups (n=5 in each group) as follows: Group 1: Normal; Group 2: CHF canines not treated with PFD (or CHF); and Group 3: CHF canines treated with PFD (or CHF+PFD). […] The CHF and CHF+PFD canines underwent placement of a permanent single-chamber pacemaker with the pacing lead positioned in the right ventricular apex followed by radiofrequency catheter ablation of the AV junction to create complete heart block. Canines in the CHF and CHF+PFD groups underwent 3 weeks of VTP at a rate of 220 bpm. Oral PFD (800 mg three times a day) (InterMune, Brisbane, Calif.) was started 2 days prior to the initiation of VTP and was given for the full duration of the pacing period. The CHF and CHF+PFD groups underwent transesophageal echocardiography at the time of pacemaker implantation and at follow-up. Canines in the paced groups underwent weekly transthoracic echocardiography, weekly ECG monitoring to ensure right ventricular capture, and weekly physical examinations. CHF was established by clinical signs, such as, lethargy, peripheral edema, and mucous membrane color changes. Left atrial (LA) size was determined by measuring the LA area by planimetry from 2-D echocardiographic images during diastole from the 2-chamber views. Left ventricular (LV) systolic function was determined by measuring LV fractional shortening at the level of the papillary muscle. Two repeated measurements were made for LA area and LV fractional shortening and the mean value was used for analyses.

[2] = system: canines with ventricular tachypacing (VTP)-induced congestive heart failure (CHF); experiment: Histologic study of atrial fibrosis (Sirius red)
Source text: Briefly, 15 adult mongrel canines (weight 20 to 32 kgs) were divided into 3 groups (n=5 in each group) as follows: Group 1: Normal; Group 2: CHF canines not treated with PFD (or CHF); and Group 3: CHF canines treated with PFD (or CHF+PFD). […] The CHF and CHF+PFD canines underwent placement of a permanent single-chamber pacemaker with the pacing lead positioned in the right ventricular apex followed by radiofrequency catheter ablation of the AV junction to create complete heart block. Canines in the CHF and CHF+PFD groups underwent 3 weeks of VTP at a rate of 220 bpm. Oral PFD (800 mg three times a day) (InterMune, Brisbane, Calif.) was started 2 days prior to the initiation of VTP and was given for the full duration of the pacing period. At the conclusion of the EP study, the animals were euthanized. Atrial tissue samples were fixed in 10% neutral buffered formalin. The samples were processed, embedded in paraffin, and sectioned into 4- to 5-μm-thick sections. The sections were stained in either H&E, Masson's trichrome, or Sirius red. […] To quantify fibrosis, the red pixel content of digitized images (Sirius red-stained) was measured relative to the total tissue area (red and green pixels) with the Adobe Photoshop 7.0 software package. Areas containing blood vessels and perivascular interstitial cells were excluded from fibrosis quantification. […]

[3] = system: total c-Jun N-terminal kinase (JNK); experiment: Western blot of atrial tissue; settings: CHF+PFD vs CHF
Method: (§1) Expression of MAPks in atrial tissue was evaluated using Western Blot analysis. Briefly, atrial tissue specimen containing an equal amount of total protein (10 μg) was electrophoresed on a 4-20% Tris-glycine gel and then transferred onto a nitrocellulose filter. Non-specific binding sites were blocked with 4% BSA, and the filter was incubated with diluted antibody and a matched secondary antibody (all antibodies were obtained from Chemicon, Temecular, Calif.). Protein bands were analyzed with an enhanced chemiluminescence detection method using horseradish peroxidase, based on the recommendations from the manufacturer (NEN Life Science, Boston, Mass.).

[4] = system: total extracellular signal-regulated protein kinase (ERK); experiment: Western blot of atrial tissue; settings: CHF+PFD vs CHF
Method: as §1

total p-38 = experiment: Western blot of atrial tissue; settings: CHF+PFD vs CHF
Method: as §1

TNF-α = experiment: Western blot of atrial tissue; settings: 3 groups
IL-10 = experiment: Western blot of atrial tissue; settings: 3 groups
connexin 40 (Cx40) = experiment: Immunofluorescent distribution of gap junction protein in LA; settings: CHF and CHF+PFD groups
Method: (§2) The distribution of gap junction proteins connexin 43 (Cx43) and connexin 40 (Cx40) in atrial tissue was also studied. Atrial specimens were incubated with mouse monoclonal antibody against Cx40 and rabbit polyclonal antibody against Cx43 (Dako) overnight at 4° C. Subsequently, incubation with FITC-labeled goat anti-rabbit (for Cx43) and Texas Red-labeled donkey anti-mouse (for Cx40) antibodies (Jackson ImmunoResearch Laboratories, West Grove, Pa.) was performed. The specimens were processed and analyzed with fluorescent microscopy.

connexin 43 (Cx43) = experiment: as above; settings: CHF and CHF+PFD groups
Method: as §2

[5] = system: canines with heart failure produced by 4 weeks of rapid ventricular pacing; experiment: AF inducibility after PFD started once 4 weeks of rapid ventricular pacing ended (Example 7); settings: two canines, pacemakers turned off at 4 weeks, then PFD for 3 weeks
Method: AF inducibility was assessed by both the single-extrastimulus protocol (as above) and a burst pacing protocol which consisted of pacing at one LA site and one RA site. A total of 16 burst stimulations were carried out for each animal with each atrial site receiving 8 burst […] (4 for a duration of 6 seconds and 4 for 12 seconds) at a CL of 50 ms and a stimulus output of 0.5 V+twice diastolic threshold. AF was considered sustained if the induced episode lasted >[…] at which time the longest AF duration was taken as 3600 seconds and used for analysis. Two adult mongrel canines (weight 20 to 32 kgs) with heart failure produced by 4 weeks of rapid ventricular pacing as described above were evaluated for AF inducibility following PFD treatment. Briefly, pacemakers were turned off at 4 weeks and PFD started for 3 weeks. A follow-up study for AF inducibility after 3 weeks of PFD treatment was performed as described above.

Cc1ccc(=O)n(-c2ccccc2)c1 [PFD, 5-methyl-1-phenyl-2-(1H)-pyridone]
LV fractional shortening after 3 weeks of VTP compared with baseline ([1]; CHF+PFD group, p<0.001 vs baseline): −69±8% | CHF signs, CHF vs CHF+PFD ([1]; 3 weeks VTP): did not appear to be different | Increase in LA area from baseline at each weekly time point, CHF vs CHF+PFD ([1]; 3 weeks VTP): similar | Inter-group baseline and weekly LV fractional shortening, CHF vs CHF+PFD ([1]; 3 weeks VTP): similar | LA interstitial fibrosis, histologic finding ([2]; Sirius red stained LA sections): significant attenuation | Percentage LA fibrosis ([2]; Sirius red, p<0.002 vs. CHF group (15.4±2.3%), Normals 3.2±1.0%): 8.3±3.0% | Expression of total JNK (c-Jun) [3]: downregulation; also recorded: reduced | Expression of total ERK [4]: downregulation; also recorded: reduced | Expression of total p-38 (total p-38): downregulation; also recorded: reduced | Expression of TNF-α (TNF-α): unchanged; also recorded: not markedly different | Expression of IL-10 (IL-10): unchanged; also recorded: not markedly different | Spatial distribution of Cx40 in LA, treated vs untreated (connexin 40 (Cx40)): did not appear markedly different | Spatial distribution of Cx43 in LA, treated vs untreated (connexin 43 (Cx43)): did not appear markedly different | AF inducibility after 3 weeks of PFD treatment [5]: AF was not found
